Assay results as given in ChEMBL document CHEMBL1201862, “PubChem BioAssay data set” (2004).
Blank lines part the entries; values can stand above or below the compound they belong to. The source made the active and inactive calls. Unless noted, the rule behind the calls is not given here.

Assays:
[1] = molecular target: Transitional endoplasmic reticulum ATPase (Homo sapiens, UniProt P55072, C522A); assay: Luminescence counterscreen assay for p97 inhibitors: dose response biochemical high throughput screening assay to identify inhibitors of the C522A mutant p97 ATPase: synthesized compounds. [Related pubchem assays: 1481, 1517, 1551 ]
[2] = molecular target: Transitional endoplasmic reticulum ATPase (Homo sapiens, UniProt P55072); assay: Luminescence dose response biochemical high throughput screening assay for inhibitors of the p97 ATPase: synthesized compounds. [Related pubchem assays: 1481, 1517 ]
[3] = molecular target: T1, Neuropeptide Y receptor type 2 (Homo sapiens, UniProt P49146); assay: IC50 for human NPY-Y2 blockade – cell-based, counter-screen for NPY-Y1 antagonist project, dose response (AID 1278); assay type: functional
T1 sequence (P49146 whole entry): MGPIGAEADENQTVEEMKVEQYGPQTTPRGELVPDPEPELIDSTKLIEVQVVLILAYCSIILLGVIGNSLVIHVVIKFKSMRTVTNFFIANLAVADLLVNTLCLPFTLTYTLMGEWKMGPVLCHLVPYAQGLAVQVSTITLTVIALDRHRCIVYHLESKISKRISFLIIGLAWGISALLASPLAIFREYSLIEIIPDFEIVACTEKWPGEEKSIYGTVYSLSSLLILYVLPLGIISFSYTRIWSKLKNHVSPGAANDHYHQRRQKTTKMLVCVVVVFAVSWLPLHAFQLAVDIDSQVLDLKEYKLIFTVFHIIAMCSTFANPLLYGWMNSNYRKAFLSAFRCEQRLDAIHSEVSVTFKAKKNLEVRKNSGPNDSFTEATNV

[4] = molecular target: T2, Neuropeptide Y receptor type 1 (Homo sapiens, UniProt P25929); assay: IC50 of human NPY-Y1 blockers – cell-based, dose response (AID 1277); assay type: functional
T2 sequence (P25929 whole entry): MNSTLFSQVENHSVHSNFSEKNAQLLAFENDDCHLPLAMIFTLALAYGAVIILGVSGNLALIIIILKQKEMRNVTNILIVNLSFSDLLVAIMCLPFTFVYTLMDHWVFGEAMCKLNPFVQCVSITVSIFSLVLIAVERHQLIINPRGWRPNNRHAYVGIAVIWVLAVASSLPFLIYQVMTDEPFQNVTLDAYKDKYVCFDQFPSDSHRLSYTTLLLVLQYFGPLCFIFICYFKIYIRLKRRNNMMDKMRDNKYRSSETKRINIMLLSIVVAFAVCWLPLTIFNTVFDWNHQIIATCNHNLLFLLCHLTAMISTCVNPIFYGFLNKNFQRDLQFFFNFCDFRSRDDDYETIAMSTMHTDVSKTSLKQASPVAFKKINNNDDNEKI

[5] = molecular target: ATP-sensitive inward rectifier potassium channel 1 (Homo sapiens, UniProt P48048); assay: Kir1.1 channel inhibitor analog potency – cell-based, thallium flux, analog library, SAR follow-up (AID 435017); assay type: functional
[6] = molecular target: T3, RNA-binding protein pos-1 (Caenorhabditis elegans, UniProt G5EF15); assay: disruptors of C. elegans POS-1 RNA interaction – biochemical, fluorescence polarization, dose response (AID 1964);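 also: purified POS-1 fused to maltose binding protein made in E. coli; potency of compounds blocking POS-1 binding to fluorescent RNA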
T3 sequence (G5EF15 whole entry): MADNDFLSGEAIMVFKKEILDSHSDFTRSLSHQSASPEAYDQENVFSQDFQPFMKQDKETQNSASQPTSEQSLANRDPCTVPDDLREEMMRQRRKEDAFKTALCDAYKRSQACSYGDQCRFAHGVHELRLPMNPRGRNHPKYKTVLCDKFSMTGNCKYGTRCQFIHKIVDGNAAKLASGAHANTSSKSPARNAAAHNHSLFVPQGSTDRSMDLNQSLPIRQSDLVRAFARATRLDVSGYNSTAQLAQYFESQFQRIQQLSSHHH

Bcl-2-related protein A1 [7] = molecular target: T4, Bcl-2-related protein A1 (Mus musculus, UniProt Q07440); assay: displacement of Bid BH3 peptide from Bfl-1 – biochemical, fluorescence polarization, FITC-Bid, mouse, primary screen (AID 432)
T4 sequence (Q07440 whole entry): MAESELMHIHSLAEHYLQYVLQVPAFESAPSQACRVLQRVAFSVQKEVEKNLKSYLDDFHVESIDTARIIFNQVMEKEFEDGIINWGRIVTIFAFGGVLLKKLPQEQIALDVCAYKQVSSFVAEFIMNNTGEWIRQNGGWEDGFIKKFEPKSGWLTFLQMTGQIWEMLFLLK

[8] = molecular target: T5, Zinc finger protein mex-5 (Caenorhabditis elegans, UniProt Q9XUB2); assay: potency of MEX-5 RNA-binding blockers – biochemical, C. elegans, fluorescence polarization, dose response (AID 1960)
T5 sequence (Q9XUB2 whole entry): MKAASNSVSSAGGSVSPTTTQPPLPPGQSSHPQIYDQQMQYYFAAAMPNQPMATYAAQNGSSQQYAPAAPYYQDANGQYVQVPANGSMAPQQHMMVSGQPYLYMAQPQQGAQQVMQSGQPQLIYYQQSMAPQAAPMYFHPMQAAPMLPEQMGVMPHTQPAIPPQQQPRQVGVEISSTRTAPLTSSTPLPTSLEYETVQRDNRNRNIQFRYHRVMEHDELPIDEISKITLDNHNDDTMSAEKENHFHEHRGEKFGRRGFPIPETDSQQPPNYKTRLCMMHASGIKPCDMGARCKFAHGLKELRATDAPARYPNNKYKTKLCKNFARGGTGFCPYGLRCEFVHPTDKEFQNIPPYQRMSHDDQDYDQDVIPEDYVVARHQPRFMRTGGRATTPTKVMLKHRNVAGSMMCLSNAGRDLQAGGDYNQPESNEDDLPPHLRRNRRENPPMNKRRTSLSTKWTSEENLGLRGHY

Bcl-2-related protein A1 [9] = molecular target: T4, Bcl-2-related protein A1; assay: small-molecule antagonists of Bfl-1/BH3 interaction – biochemical, TR-FRET, mouse Bfl-1, confirmation (AID 621);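 also: TR-FRET binding of GST-Bfl-1 to FITC-labelled Bid peptide via terbium antibody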
14-3-3 protein gamma = 14-3-3 protein gamma (Homo sapiens, UniProt P61981); assay: modulators of 14-3-3 gamma client binding – dose response (AID 711); assay type: functional
Sequence of 14-3-3 protein gamma (P61981 whole entry): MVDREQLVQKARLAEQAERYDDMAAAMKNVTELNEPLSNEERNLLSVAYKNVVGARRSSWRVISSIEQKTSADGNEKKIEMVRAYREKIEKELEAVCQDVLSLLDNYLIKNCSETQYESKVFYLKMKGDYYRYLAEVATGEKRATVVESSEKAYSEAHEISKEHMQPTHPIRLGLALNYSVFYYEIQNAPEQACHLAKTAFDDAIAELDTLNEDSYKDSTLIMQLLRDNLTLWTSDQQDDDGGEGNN

Sequence of Transitional endoplasmic reticulum ATPase (Homo sapiens, UniProt P55072, C522A) (P55072 2-806 C522A limits assumed): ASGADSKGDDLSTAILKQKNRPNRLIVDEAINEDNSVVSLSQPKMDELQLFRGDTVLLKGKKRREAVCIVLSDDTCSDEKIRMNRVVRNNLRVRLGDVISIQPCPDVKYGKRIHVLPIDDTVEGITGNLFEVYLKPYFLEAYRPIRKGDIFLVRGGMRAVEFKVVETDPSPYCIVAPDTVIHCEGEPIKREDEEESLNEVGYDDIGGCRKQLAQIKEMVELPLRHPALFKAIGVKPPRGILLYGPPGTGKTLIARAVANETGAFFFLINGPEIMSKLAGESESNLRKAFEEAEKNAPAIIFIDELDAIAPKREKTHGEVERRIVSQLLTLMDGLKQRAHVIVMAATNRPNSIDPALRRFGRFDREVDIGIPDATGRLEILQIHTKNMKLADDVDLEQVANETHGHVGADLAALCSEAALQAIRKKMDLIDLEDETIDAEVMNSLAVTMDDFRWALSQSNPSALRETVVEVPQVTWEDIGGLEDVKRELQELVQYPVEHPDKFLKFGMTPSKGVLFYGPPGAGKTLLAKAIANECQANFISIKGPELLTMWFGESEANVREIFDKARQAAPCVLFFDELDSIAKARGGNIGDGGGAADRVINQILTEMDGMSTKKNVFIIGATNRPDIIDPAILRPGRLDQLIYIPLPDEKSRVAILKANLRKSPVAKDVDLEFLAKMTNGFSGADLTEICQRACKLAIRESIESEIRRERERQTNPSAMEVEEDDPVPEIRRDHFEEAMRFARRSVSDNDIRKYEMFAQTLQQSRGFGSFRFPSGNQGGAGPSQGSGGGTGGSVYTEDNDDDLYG
Sequence of Transitional endoplasmic reticulum ATPase (Homo sapiens, UniProt P55072) (P55072 whole entry): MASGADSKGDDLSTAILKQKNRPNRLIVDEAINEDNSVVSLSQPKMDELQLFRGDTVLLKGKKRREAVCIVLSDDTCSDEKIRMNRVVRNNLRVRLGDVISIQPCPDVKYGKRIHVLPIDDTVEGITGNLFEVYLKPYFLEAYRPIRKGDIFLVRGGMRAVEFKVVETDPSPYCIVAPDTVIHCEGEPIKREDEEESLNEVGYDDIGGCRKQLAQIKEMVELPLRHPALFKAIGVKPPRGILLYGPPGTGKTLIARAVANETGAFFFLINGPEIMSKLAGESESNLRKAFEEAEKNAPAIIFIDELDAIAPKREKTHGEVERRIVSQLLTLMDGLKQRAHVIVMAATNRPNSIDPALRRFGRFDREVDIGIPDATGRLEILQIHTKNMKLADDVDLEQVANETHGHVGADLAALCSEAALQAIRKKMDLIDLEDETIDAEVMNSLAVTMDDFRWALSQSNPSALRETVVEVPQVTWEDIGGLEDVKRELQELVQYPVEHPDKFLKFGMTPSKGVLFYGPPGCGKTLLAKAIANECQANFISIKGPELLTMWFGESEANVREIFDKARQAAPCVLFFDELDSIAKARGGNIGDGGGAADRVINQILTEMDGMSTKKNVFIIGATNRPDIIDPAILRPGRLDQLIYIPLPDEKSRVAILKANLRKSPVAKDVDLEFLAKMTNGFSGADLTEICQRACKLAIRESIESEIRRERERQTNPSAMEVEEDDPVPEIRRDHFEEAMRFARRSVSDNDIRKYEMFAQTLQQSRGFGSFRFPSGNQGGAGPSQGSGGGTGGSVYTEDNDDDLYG
Sequence of ATP-sensitive inward rectifier potassium channel 1 (P48048 whole entry, the tested form may be a part): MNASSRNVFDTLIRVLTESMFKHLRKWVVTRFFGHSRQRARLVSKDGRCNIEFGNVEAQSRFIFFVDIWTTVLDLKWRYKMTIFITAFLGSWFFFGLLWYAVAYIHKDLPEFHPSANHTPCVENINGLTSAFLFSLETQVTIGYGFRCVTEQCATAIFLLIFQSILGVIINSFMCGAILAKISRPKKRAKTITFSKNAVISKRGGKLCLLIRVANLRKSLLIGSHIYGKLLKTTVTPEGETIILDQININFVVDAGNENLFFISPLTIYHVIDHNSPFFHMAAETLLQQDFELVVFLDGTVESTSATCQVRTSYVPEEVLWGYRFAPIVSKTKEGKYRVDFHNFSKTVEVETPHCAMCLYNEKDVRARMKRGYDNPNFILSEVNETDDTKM

IC50 [1]: > 50 µM (not active)
IC50 [2]: > 50 µM (not active)
Structure (SMILES): CCOC(=O)/C(C#N)=C/c1c2ccccc2cc2ccccc12

IC50 [3]: > 35 µM (not active)
IC50 [4]: > 35 µM (not active)
Structure (SMILES): CNCc1cc(Cl)cc(OC)c1OC(C)C

IC50 [5]: 0.273 µM (active)
Structure (SMILES): O=[N+]([O-])c1ccc(CN2CCOCCOCCN(Cc3ccc([N+](=O)[O-])cc3)CCOCC2)cc1

EC50 [6]: 7.15 µM (inconclusive)
IC50 (Bcl-2-related protein A1 [7]): > 100 µM (not active)
EC50 [8]: 8.29 µM (inconclusive)
IC50 (Bcl-2-related protein A1 [9]): > 100 µM (not active)
IC50 (14-3-3 protein gamma): > 50 µM (not active)
Structure (SMILES): Cc1ccc(C2C3CN(C(C)C)CC=C3C(C#N)=C(N)C2(C#N)C#N)cc1 (stereo not given)
